Changes are numbered by the printed parent chain. Like-named read-outs stand apart in the source and are kept apart here. Each block holds one molecule with its values, some of them ahead of it.
What was measured:
[1] = target: T1, SLCO1B1*15 (N130D and V174A) (Homo sapiens, UniProt Q9Y6L6, N130D/V174A); settings: among the variants examined; cited from earlier work
T1 sequence (Q9Y6L6 1-691 N130D/V174A): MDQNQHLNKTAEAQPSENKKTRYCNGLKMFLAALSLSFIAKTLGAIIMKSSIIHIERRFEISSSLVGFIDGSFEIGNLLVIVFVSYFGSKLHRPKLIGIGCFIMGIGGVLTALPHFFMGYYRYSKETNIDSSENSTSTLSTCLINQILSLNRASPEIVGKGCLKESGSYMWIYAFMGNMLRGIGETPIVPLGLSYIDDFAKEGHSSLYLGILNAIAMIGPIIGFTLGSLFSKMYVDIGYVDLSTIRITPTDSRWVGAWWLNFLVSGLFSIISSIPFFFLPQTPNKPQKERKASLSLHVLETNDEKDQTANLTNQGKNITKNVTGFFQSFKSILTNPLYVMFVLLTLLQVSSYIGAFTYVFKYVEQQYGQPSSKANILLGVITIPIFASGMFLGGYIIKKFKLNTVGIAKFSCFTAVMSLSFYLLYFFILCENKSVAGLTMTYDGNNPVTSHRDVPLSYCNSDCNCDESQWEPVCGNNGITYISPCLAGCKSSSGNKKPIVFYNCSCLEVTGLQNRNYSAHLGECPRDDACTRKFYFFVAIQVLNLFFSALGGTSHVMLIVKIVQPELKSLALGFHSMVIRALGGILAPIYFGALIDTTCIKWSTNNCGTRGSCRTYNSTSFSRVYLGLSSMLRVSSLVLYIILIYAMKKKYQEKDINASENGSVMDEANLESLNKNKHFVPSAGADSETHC

OATP1B1 = target: T2, OATP1B1 (Homo sapiens, UniProt Q9Y6L6); settings: cited from earlier work
T2 sequence (Q9Y6L6 1-691): T1 sequence (Q9Y6L6 1-691 N130D/V174A) with D130N, A174V

[2] = Irinotecan pharmacokinetics (AUC, noncompartmental analysis) in cancer patients stratified by genotype
[3] = human, in vivo
[4] = early single agent trials; fraction of patients; cited from earlier work
[5] = cited from earlier work
[6] = OATP1B1*1a and three common variants

SMILES: CCc1c2c(nc3ccc(O)cc13)-c1cc3c(c(=O)n1C2)COC(=O)[C@]3(O)CC [SN-38, 7-ethyl-10-hydroxycamptothecin]
- Transport activity of SLCO1B1*15 variant [1]: decreased transport activities
- Transport by OATP1B1 (OATP1B1; [6]): transport activity for SN-38 was observed
- Inhibition of SLCO1B1-mediated uptake of [(3)H]estrone-3-sulfate (OATP1B1): significant inhibitory effect
- AUC in ABCC2 3972 TT patients compared to CT and CC patients ([2]; 350 mg/m^2 IV irinotecan, SN-38 and SN-38G analysed in 6/6 and 6/7 UGT1A1 genotype patients): No significant correlation

SMILES: CCc1c2c(nc3ccc(O[C@@H]4O[C@H](C(=O)O)[C@@H](O)[C@H](O)[C@H]4O)cc13)-c1cc3c(c(=O)n1C2)COC(=O)[C@]3(O)CC [SN-38G, 10O-glucuronyl-SN-38]
- Transport by OATP1B1 (OATP1B1): not transported
- Effect of SLCO1B1*5 variant on patient exposure (AUC) [3]: not affected

SMILES: C[C@]12CC[C@@H]3c4ccc(OS(=O)(=O)O)cc4CC[C@H]3[C@@H]1CCC2=O [estrone-3-sulfate]
- Transport activity of SLCO1B1*15 variant [1]: decreased transport activities

- Effect of SLCO1B1*5 variant on patient exposure (AUC) [3]: increase in irinotecan AUC
- Effect of SLCO1B1*1b allele on plasma disposition ([2]; human, in vivo): no effect
SMILES: CCc1c2c(nc3ccc(OC(=O)N4CCC(N5CCCCC5)CC4)cc13)-c1cc3c(c(=O)n1C2)COC(=O)[C@]3(O)CC [irinotecan, Irinotecan]
- Frequency of grade 3-4 diarrhea [4]: about one third
- Transport by OATP1B1 (OATP1B1; [6]): not transported

SMILES: CC[C@H](C)C(=O)O[C@H]1C[C@H](O)C=C2C=C[C@H](C)[C@H](CC[C@@H](O)C[C@@H](O)CC(=O)O)[C@H]21 [pravastatin]
- Mean pravastatin AUC0-12 higher compared to non-carriers ([5]; heterozygous carriers of *15B): 93%
- Mean pravastatin AUC0-12 higher compared to non-carriers ([5]; heterozygous carriers of *17): 130%
- Mean pravastatin AUC0-12 higher compared to reference genotype ([5]; subjects with SLCO1B1 -11187GA genotype): 98%
- Transport activity of SLCO1B1*15 variant [1]: decreased transport activities
